Experimental data reported in ChEMBL document CHEMBL1201862, “PubChem BioAssay data set” (2004).
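Compound exposure: 48 hours, 5 concentrations, 96-well plates. The concentration for 50% growth inhibition is given as GI50.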 Activity calls are given as the source filed them. No stated cut-off is given here; in the data, active = GI50 up to about 1.1 µM and inactive = higher.

Experiments:
Test in all cases: growth of human tumour cells (NCI), 48 h
NCI-H23 = tested on: NCI-H23
MDA-MB-231 = tested on: MDA-MB-231
OVCAR-8 = tested on: OVCAR-8
SW-620 = tested on: SW-620
A498 = tested on: A498
EKVX = tested on: EKVX
SF-295 = tested on: SF-295
SR = tested on: SR
OVCAR-3 = tested on: OVCAR-3
IGROV-1 = tested on: IGROV-1
NCI-H460 = tested on: NCI-H460
SF-539 = tested on: SF-539
K562 = tested on: K562
SNB-75 = tested on: SNB-75
SF-268 = tested on: SF-268
HCT-15 = tested on: HCT-15
MOLT-4 = tested on: MOLT-4
A549 = tested on: A549
UACC-62 = tested on: UACC-62
BT-549 = tested on: BT-549

| SMILES | GI50 (NCI-H23) | GI50 (MDA-MB-231) | GI50 (OVCAR-8) | GI50 (SW-620) | GI50 (A498) | GI50 (EKVX) | GI50 (SF-295) | GI50 (SR) | GI50 (OVCAR-3) | GI50 (IGROV-1) | GI50 (NCI-H460) | GI50 (SF-539) | GI50 (K562) | GI50 (SNB-75) | GI50 (SF-268) | GI50 (HCT-15) [µM] | GI50 (MOLT-4) | GI50 (A549) | GI50 (UACC-62) | GI50 (BT-549) |
| --- | --- | --- | --- | --- | --- | --- | --- | --- | --- | --- | --- | --- | --- | --- | --- | --- | --- | --- | --- | --- |
| C=C1c2cc3c(cc2CC12Cc1cc4c(cc1C2=O)CCC4)CCC3 (stereo not drawn) | > 100 µM (inactive) | > 100 µM (inactive) | > 100 µM (inactive) | > 100 µM (inactive) | > 100 µM (inactive) | > 100 µM (inactive) | > 100 µM (inactive) | 36.1 µM (inactive) | > 100 µM (inactive) | > 100 µM (inactive) | > 100 µM (inactive) | > 100 µM (inactive) | > 100 µM (inactive) | > 100 µM (inactive) | > 100 µM (inactive) | > 100 | > 100 µM (inactive) | > 100 µM (inactive) |  |  |
| CN1c2ccccc2C(=O)NC12CCN(Cc1ccccc1)CC2 | > 100 µM (inactive) | 96.6 µM (inactive) | 69.2 µM (inactive) | 55.3 µM (inactive) | 57.1 µM (inactive) | 42.2 µM (inactive) | 32 µM (inactive) | 33.3 µM (inactive) |  | 69.2 µM (inactive) | 39.4 µM (inactive) | 50.7 µM (inactive) |  | 75 µM (inactive) | 89.7 µM (inactive) | 42.5 | 38.9 µM (inactive) | 56.9 µM (inactive) | 86.5 µM (inactive) |  |
| CC1(C)C(CCO)CC1n1cc(I)c(=O)[nH]c1=O (stereo not drawn) |  | 86.3 µM (inactive) |  | > 100 µM (inactive) | > 100 µM (inactive) | > 100 µM (inactive) | > 100 µM (inactive) |  | > 100 µM (inactive) |  |  | > 100 µM (inactive) | > 100 µM (inactive) | > 100 µM (inactive) | > 100 µM (inactive) | > 100 | > 100 µM (inactive) | > 100 µM (inactive) | 21.1 µM (inactive) |  |
| CCCN(CCC)C(=O)c1c(N2CCN(C)CC2)c2cccnc2n2c(C)cnc12 | > 100 µM (inactive) | > 100 µM (inactive) | > 100 µM (inactive) | 17.5 µM (inactive) | 78.5 µM (inactive) | > 100 µM (inactive) | > 100 µM (inactive) | 39.5 µM (inactive) | 94.8 µM (inactive) | > 100 µM (inactive) | > 100 µM (inactive) | > 100 µM (inactive) | > 100 µM (inactive) | > 100 µM (inactive) | > 100 µM (inactive) | > 100 | 85.9 µM (inactive) | > 100 µM (inactive) | > 100 µM (inactive) |  |
| O[C@@H]1C[C@@H]2N[C@@](O)(C[C@@H]2O)[C@H]1O | > 100 µM (inactive) | > 100 µM (inactive) | > 100 µM (inactive) | > 100 µM (inactive) | > 100 µM (inactive) | > 100 µM (inactive) | > 100 µM (inactive) | > 100 µM (inactive) | > 100 µM (inactive) | > 100 µM (inactive) | > 100 µM (inactive) | > 100 µM (inactive) | > 100 µM (inactive) | 84.3 µM (inactive) | > 100 µM (inactive) | > 100 | > 100 µM (inactive) | > 100 µM (inactive) | > 100 µM (inactive) |  |
| NCCO/C=C/C(N)C(=O)O (stereo not drawn) [AMINOETHOXYVINYLGLYCINE] | > 100 µM (inactive) | > 100 µM (inactive) | > 100 µM (inactive) | > 100 µM (inactive) |  | > 100 µM (inactive) | > 100 µM (inactive) |  | > 100 µM (inactive) | > 100 µM (inactive) | > 100 µM (inactive) | > 100 µM (inactive) | > 100 µM (inactive) | > 100 µM (inactive) | > 100 µM (inactive) | > 100 |  | > 100 µM (inactive) | > 100 µM (inactive) | > 100 µM (inactive) |
| O=[N+]([O-])c1ccc2c(c1)S(=O)(=O)N1Cc3ccccc3CCN21 | > 100 µM (inactive) | > 100 µM (inactive) | > 100 µM (inactive) | > 100 µM (inactive) | > 100 µM (inactive) | 13.3 µM (inactive) | 27.1 µM (inactive) | > 100 µM (inactive) | 48.8 µM (inactive) | > 100 µM (inactive) | > 100 µM (inactive) | 54.5 µM (inactive) | > 100 µM (inactive) | 59.3 µM (inactive) | 40.7 µM (inactive) | > 100 | > 100 µM (inactive) | > 100 µM (inactive) | > 100 µM (inactive) |  |
| COC(=O)C1=C(C(=O)OC)SC(=CC#CC=C2SC(C(=O)OC)=C(C(=O)OC)S2)S1 | 5.81 µM (inactive) |  | 5.04 µM (inactive) | 26.9 µM (inactive) | 19.4 µM (inactive) | 52.2 µM (inactive) | 2.82 µM (inactive) | > 100 µM (inactive) | 5.94 µM (inactive) | 18.2 µM (inactive) | 21 µM (inactive) | 2.19 µM (inactive) | > 87.5 µM (inactive) | 7 µM (inactive) | > 32.4 µM (inactive) | 12.6 | > 100 µM (inactive) | 25.5 µM (inactive) | 8.26 µM (inactive) |  |
| COc1cc(C(c2cc3c(cc2O)OCO3)N2CCCC2)cc(OC)c1OC (stereo not drawn) | 17.5 µM (inactive) | 15.9 µM (inactive) | 16.1 µM (inactive) | 3.4 µM (inactive) | 21.4 µM (inactive) | 14.7 µM (inactive) | 18.6 µM (inactive) |  | 17.7 µM (inactive) | 12.4 µM (inactive) |  |  | 4.37 µM (inactive) | 16.2 µM (inactive) |  | 8.43 | 3.96 µM (inactive) | 20.4 µM (inactive) | 15.8 µM (inactive) |  |
| O=C1CCCCCCCCCCC1CCCCCBr (stereo not drawn) | 24.4 µM (inactive) | 20.3 µM (inactive) | 31.8 µM (inactive) | 42.5 µM (inactive) | 14.4 µM (inactive) | 41.7 µM (inactive) | 34.4 µM (inactive) | 24.7 µM (inactive) | 17.4 µM (inactive) | 20.1 µM (inactive) | 36.6 µM (inactive) | 22.8 µM (inactive) | 16.1 µM (inactive) | 16.3 µM (inactive) | 30.8 µM (inactive) | 24.3 | 17.1 µM (inactive) | 29.4 µM (inactive) | 31.1 µM (inactive) |  |
| N#CCc1nc(O)c2ccccc2n1 | > 100 µM (inactive) | > 100 µM (inactive) | > 100 µM (inactive) | > 100 µM (inactive) |  | > 100 µM (inactive) | > 100 µM (inactive) |  | 69.7 µM (inactive) | > 100 µM (inactive) | > 100 µM (inactive) | > 100 µM (inactive) |  | > 100 µM (inactive) |  | 48 | 39.7 µM (inactive) | > 100 µM (inactive) |  |  |
| c1ccc(CSC2(SCc3ccccc3)CCCCC2)cc1 | > 10 µM (inactive) | > 10 µM (inactive) | > 10 µM (inactive) | > 10 µM (inactive) | > 10 µM (inactive) | > 10 µM (inactive) | > 10 µM (inactive) | > 10 µM (inactive) | > 10 µM (inactive) | > 10 µM (inactive) | > 10 µM (inactive) | > 10 µM (inactive) | > 10 µM (inactive) | > 10 µM (inactive) | > 10 µM (inactive) | > 10 | > 10 µM (inactive) | > 10 µM (inactive) | > 10 µM (inactive) |  |
